According to patent US20250011778A1, “APP iRNA Compositions and Methods of Use Thereof for Treating or Preventing Diseases Characterized by Enlarged Endosomes” (ALNYLAM PHARMACEUTICALS, INC., priority 2021, published 2025):
Entries after “also recorded” stand apart in the source; their conditions may differ.

Tests used:
Type in all cases: in vivo
[1] = test system: AB40 deposits; assay: CVN mouse study, Aβ40 (AB40) deposits by IHC; conditions: 6 months after dose, dosed pre-symptomatically, not significant (n=2-4)
Text: (§1) Male and female CVN mice were bred at CRL Germany and genotyped, housed, dosed and analyzed (IHC, ^1H-MRS and open field test) at CRL Finland, as previously reported, under regular temperature, humidity and light/dark cycle conditions (Wilcock et al. J. Neurosci. 28: 1537-1545; Colton et al. J. Neuropathol. Exp. Neurol. 73: 752-769; Kohonen et al. Nat. Commun. 8: 15932). Homozygous Tg-hAPP^SwDI/mNos2^−/− (CVN) mice were produced by crossing mice expressing the vasculotropic Swedish K670N/M671L, Dutch E693Q and Iowa D694N human APP mutations under control of the Thy-1 promoter (Davis et al. J. Biol. Chem. 279: 20296-20306) with mNos2^−/− (B6 129PNos2 tau1Lau/J) mice (Laubach et al. Am. J. Physiol. 275: H2211-H2218). The study was divided into two phases. In the first phase, 15 CVN mice were dosed by ICV at 3 months of age, with terminal tissue sampling at 6 months of age and 9 months of age. In the second phase, 40 CVN mice and 20 WT mice were divided into three experimental groups, with terminal tissue sampling at 9 months of age and 12 months of age. […] Mice were placed in the center of the chamber, and their behaviors were recorded for 30 minutes. The following parameters were recorded and analyzed: distance traveled, number of vertical rearings and average velocity. […]

[2] = test system: APP mRNA; assay: CVN mouse study, APP mRNA knockdown after ICV dose
Text: Male and female CVN mice were bred at CRL Germany and genotyped, housed, dosed and analyzed (IHC, ^1H-MRS and open field test) at CRL Finland, as previously reported, under regular temperature, humidity and light/dark cycle conditions (Wilcock et al. J. Neurosci. 28: 1537-1545; Colton et al. J. Neuropathol. Exp. Neurol. 73: 752-769; Kohonen et al. Nat. Commun. 8: 15932). Homozygous Tg-hAPP^SwDI/mNos2^−/− (CVN) mice were produced by crossing mice expressing the vasculotropic Swedish K670N/M671L, Dutch E693Q and Iowa D694N human APP mutations under control of the Thy-1 promoter (Davis et al. J. Biol. Chem. 279: 20296-20306) with mNos2^−/− (B6 129PNos2 tau1Lau/J) mice (Laubach et al. Am. J. Physiol. 275: H2211-H2218). The study was divided into two phases. In the first phase, 15 CVN mice were dosed by ICV at 3 months of age, with terminal tissue sampling at 6 months of age and 9 months of age. In the second phase, 40 CVN mice and 20 WT mice were divided into three experimental groups, with terminal tissue sampling at 9 months of age and 12 months of age. Metabolic analyses using ^1H-MRS were at 12 months of age, respectively, as previously described (Colton et al. J. Neuropathol. Exp. Neurol. 73: 752-769). Open field test measurements were performed at approximately 9 months of age. Activity chambers (Med Associates, 27×27×20.3 cm) were equipped with infrared beams. Mice were placed in the center of the chamber, and their behaviors were recorded for 30 minutes. The following parameters were recorded and analyzed: distance traveled, number of vertical rearings and average velocity. IHC was performed as described (Wilcock et al. J. Neurosci. 28: 1537-1545; Kan et al. J Neurosci. 35: 5969-5982) using anti-amyloid-beta antibody WO2 (Sigma-Aldrich, MABN10, lot 3557956, 1:500) and anti-IBA1 antibody (Wako Pure Chemicals, 01-1941, lot LEP3218, 1:200). All data are presented as mean±standard deviation or standard error of the mean, and differences were statistically significant at the P<0.05 level. Statistical analyses were performed using the PRISM statistical program (GraphPad Software).
ICV administration was performed using stereotaxically guided Hamilton syringe and infusion system (Harvard Apparatus). A single 5-μl unilateral injection was performed in the right lateral ventricle at the following coordinates: AP=−0.5 mm (posterior from bregma), ML=+1.0 mm and DV=−1.75 mm, using standard aseptic surgical procedures. After midline skin incision on the scalp, a burr hole was generated at selected coordinates using stereotaxic coordinates and a dental drill. Thereafter, a small puncture in the dura was made at the epicenter of the burr hole, and the needle was lowered to specified depth to reach the lateral ventricle. A Hamilton syringe with a 28-gauge blunt needle was filled with a volume slightly greater than 5 μl. Administration volume of the test articles was at 5 μl and infusion rate at 1 μl min^−1 (over 5 minutes). After the infusion, the needle was left in place for a stabilization period of 5 minutes before withdrawal from the ventricle. Withdrawal was performed slowly and paused for 30 seconds when the needle tip was at the cortical area. […]

[3] = test system: CVN mice; assay: CVN mouse study, open field test; conditions: vs WT
Text: as §1

[4] = test system: sAPPα protein; assay: CVN mouse study, sAPPα protein after ICV dose; conditions: single 60 μg ICV, CSF
Text: as §1

[5] = test system: IBA1; assay: CVN mouse study, inflammation (IBA1 IHC and Iba1 qPCR)
Text: as §1

[6] = test system: glutamate (Glu) and N-acetylaspartate (NAA); assay: CVN mouse study, metabolites by 1H-MRS; conditions: 1H-MRS at 12 months of age (6 months post-dose)
Text: as §1

AD-454972: APP-targeting C16-siRNA; sense usasuga(Ahd)GfuUfCfAfucaucaaasasa, antisense VPusUfsuuug(Agn)ugaugaAfcUfucauasusc; SEQ 1435/1440 (sense UAUGAAGUUCAUCAUCAAAAA; antisense UUUUUGAUGAUGAACUUCAUAUC; C16 conjugate, chemical modifications, chemistry not fully specified)
reduction of AB40 deposits [1]: approximately 50%
reduction of APP mRNA in the cortex ([2]; after 3 months): approximately 25%
reduction of APP mRNA ([2]; single 60 μg ICV, ventral cortex (VC)): 50%
reduction of APP mRNA ([2]; single 120 μg ICV, 30 days post-dose, VC): ~75%
reduction of APP mRNA ([2]; single 120 μg ICV, 60 days post-dose, VC): > 50%
APP mRNA level ([2]; single 120 μg ICV, 90 days, VC): normalizing
rearing frequency [3]: normalization; also recorded: normalized
total distance traveled [3]: normalization; also recorded: normalized
reduction of sAPPα protein [4]: 50%
reduction of Iba1 mRNA expression ([5]; after 6 months): 20-30%
IBA1 IHC intensity ([5]; cortex and hippocampus, rate of increase over time): significantly slower rate of increase
N-acetylaspartate (NAA) levels [6]: little effect
glutamate (Glu) levels ([6]; vs WT): normalization; also recorded: normalized
